The nature of series [1]: Induction of apoptosis in JR8 cells after 72 hrs at 125 uM. In kind it is functional, Homo sapiens.
Series [2] in a line: Cytotoxicity against human WI38 cells after 72 hrs. Conditions: wi-38, 72 h. Format: cell-based.
Series [3] concerns DU-145. Put plainly: Apoptotic activity against DU145 cells after 72 hrs. Format: functional, Homo sapiens.
The target in series [4] is T1, Caspase-9 (Homo sapiens) (UniProt P55211).
T1 sequence (whole entry): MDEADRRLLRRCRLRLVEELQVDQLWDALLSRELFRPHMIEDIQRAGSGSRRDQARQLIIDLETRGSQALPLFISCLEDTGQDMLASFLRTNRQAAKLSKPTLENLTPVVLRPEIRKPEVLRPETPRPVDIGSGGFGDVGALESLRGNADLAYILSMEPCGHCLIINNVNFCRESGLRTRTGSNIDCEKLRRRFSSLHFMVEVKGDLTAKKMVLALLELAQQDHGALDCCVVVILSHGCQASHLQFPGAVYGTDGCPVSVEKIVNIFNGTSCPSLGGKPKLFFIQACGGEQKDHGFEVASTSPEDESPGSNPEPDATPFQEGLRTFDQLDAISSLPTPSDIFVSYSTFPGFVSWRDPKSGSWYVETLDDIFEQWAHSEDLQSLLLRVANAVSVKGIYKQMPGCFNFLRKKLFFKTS
Description: Activation of caspase 9 in HeLa cells assessed as hydrolysis of LEHD-pNA […] substrate. Format: cell-based.

For series [5], the target named is T2, Heat shock protein HSP90 (Homo sapiens) (UniProt P07900+P08238). Put plainly: Activity at Hsp90 in DU145 cells assessed as reduction in telomerase activity by TRAP assay relative to control. In kind it is cell-based. More on the design: scale not given: the % may be the effect or the level left. Conditions: DU-145.
Series [6] has as its system HeLa. Description: Apoptotic activity against HeLa cells after 72 hrs. Format: functional, Homo sapiens.
Series [7] addresses T3, Caspase-3 (Homo sapiens) (UniProt P42574).
T3 sequence (whole entry): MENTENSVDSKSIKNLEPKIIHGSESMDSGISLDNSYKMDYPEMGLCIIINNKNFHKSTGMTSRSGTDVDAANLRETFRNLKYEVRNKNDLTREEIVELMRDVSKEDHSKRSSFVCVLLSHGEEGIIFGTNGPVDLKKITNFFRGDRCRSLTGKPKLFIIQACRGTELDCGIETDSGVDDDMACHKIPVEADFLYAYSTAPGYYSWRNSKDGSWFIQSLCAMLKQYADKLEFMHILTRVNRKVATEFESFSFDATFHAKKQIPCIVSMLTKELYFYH
Description: Activation of caspase 3 in HeLa cells assessed as hydrolysis of DEVD-pNA […] substrate. In kind it is cell-based.

The target of series [8] is T2, Heat shock protein HSP90 (Homo sapiens). Put plainly: Activity at Hsp90 in HeLa cells assessed as reduction in telomerase activity by TRAP assay relative to control. Format: cell-based. Details: scale not given: the % may be the effect or the level left.
In series [9] the test system is DU-145. Description: Induction of apoptosis in DU145 cells after 72 hrs at 62.5 uM. Format: functional, Homo sapiens.
Series [10] deals with HeLa. Put plainly: Induction of apoptosis in HeLa cells after 72 hrs at 125 uM. In kind it is functional, Homo sapiens.
Series [11] concerns DU-145. Description: Cytotoxicity against DU145 cells after 72 hrs. Format: cell-based. Conditions: Homo sapiens, DU-145, 72 h.
Series [12] deals with T3, Caspase-3 (Homo sapiens). Put plainly: Activation of caspase 3 in DU145 cells assessed as hydrolysis of DEVD-pNA […] substrate. Format: cell-based. Conditions: DU-145.
Series [13] is described as follows: Cytotoxicity against JR8 cells after 72 hrs. Format: cell-based. As to conditions: Homo sapiens, JR8, 72 h.
The target in series [14] is T1, Caspase-9 (Homo sapiens). Description: Activation of caspase 9 in DU145 cells assessed as hydrolysis of LEHD-pNA […] substrate. As to conditions: DU-145. In kind it is cell-based.
A short description of series [15]: Apoptotic activity against JR8 cells after 72 hrs. In kind it is functional, Homo sapiens.
Series [16] concerns HeLa. Put plainly: Cytotoxicity against HeLa cells after 72 hrs. Format: cell-based. Conditions: Homo sapiens.

Broadly, the pIC50 is −log10 of the IC50, conventionally taken in molar units.

pIC50: −log10 of the molar value. The source made the active and inactive calls. The calls are words filed in the database; no cut-off is given here.

As to `NC(=O)c1ncn([C@@H]2O[C@H](COP(=O)(O)O)[C@@H](O)[C@H]2O)c1N`, the Activity in series [1] was 20%; in series [2], “Not Active”; in series [3] it was 28%; in series [5] it was 70%; in series [6], 23%; in series [8], 70%. The figures for the Activity in series [9], in series [10] and in series [15] were 34%, 27% and 13%, respectively. Moreover, the result in [4], in series [7], in series [12] and in [14] was Active. Also, the pIC50 in series [11] was 4.23; in series [13], 3.98; in [16], 3.90.
As to `C=CCNC1=C2C[C@@H](C)C[C@H](OC)[C@H](O)[C@@H](C)/C=C(\C)[C@H](OC(N)=O)[C@@H](OC)/C=C\C=C(/C)C(=O)NC(=CC1=O)C2=O` [TANESPIMYCIN], the Activity came out at 15.9% in series [3], 10.8% in [6] and 12% in [15]. The pIC50 in series [11] was 4.17; in series [13], 4.27; in series [16] it was 3.97.

(Values after ChEMBL document CHEMBL1138858, “Small-molecule targeting of heat shock protein 90 chaperone function: rational identification of a new anticancer lead” (J Med Chem, 2006).)
